Experimental data published in patent US9006191B2, “Silencing of polo-like kinase expression using interfering RNA” (Protiva Biotherapeutics, Inc., priority 2007, dated 2015).

system: HT29 cells; test: HT29 cell viability assay (CellTiter-Blue); format: cell-based, human; conditions: HT29 cells, SNALP-formulated siRNA at a range of siRNA concentrations, viability at 72 h relative to PBS
Protocol: (§1) Various PLK-1 siRNAs were formulated as SNALP (“2:40” SNALP formulation: 2% PEG-cDMA; 40% DLinDMA; 10% DSPC; and 48% cholesterol) and evaluated for their inhibitory effects on cell growth in vitro. HT29 (human colon adenocarcinoma) or Neuro2A (mouse neuroblastoma) cells were treated with various PLK-1 SNALP at a range of siRNA concentrations and their effect on cell viability was evaluated. Viability of cell cultures is expressed as % viability relative to PBS treated controls.
Additional PLK-1 siRNA molecules were formulated as SNALP (“2:40” SNALP formulation: 2% PEG-cDMA; 40% DLinDMA; 10% DSPC; and 48% cholesterol) and evaluated for their inhibitory effects on cell growth in vitro. HT29 or Neuro2A cells were plated in triplicate at 5000 cells/well and 2500 cells/well, respectively. PLK-1 SNALP dosages were as follows: 25 nM; 5 nM; and 1 nM. Cell viability analysis was performed at 72 hours following transfection. SNALP containing a non-targeting (GFP) siRNA were used as a negative control. […]
PLK-1 siRNA molecules containing 2′-O-methyl (2′OMe) nucleotides at selective positions within the double-stranded region of the siRNA duplex were formulated as SNALP (“2:40” SNALP formulation: 2% PEG-cDMA; 40% DLinDMA; 10% DSPC; and 48% cholesterol) and evaluated for their inhibitory effects on cell growth in vitro. HT29 cells were plated in triplicate at 5000 cells/well. Cell viability analysis was performed at 72 hours following transfection with a range of PLK-1 SNALP dosages. SNALP containing a non-targeting (GFP) siRNA were used as a negative control.
Cell viability assays. […] Cell viability analysis was performed at 72 hours following transfection with a range of PLK-1 SNALP dosages.

Substance | cell viability / killing of human tumor cells
PLK694: siRNA to human PLK-1, SEQ ID NO:9/10 (chain 1 GUGGAUGUGUGGUCCAUUG; chain 2 CAAUGGACCACACAUCCAC; listed as RNA, chemistry not given here) | effective at killing human tumor cells
PLK772: siRNA to human PLK-1, SEQ ID NO:11/12 (chain 1 GAGACCUACCUCCGGAUCA; chain 2 UGAUCCGGAGGUAGGUCUC; listed as RNA, chemistry not given here) | effective at killing human tumor cells
PLK773 G/GU: 2′OMe-modified PLK773 siRNA, SEQ ID NO:64/63 (chain 1 AGACCUACCUCCGGAUCAANN; chain 2 UUGAUCCGGAGGUAGGUCUNN; chain 1: 2'-O-methyl at 2, 13, other sugars, backbone and the base at N not given here; chain 2: 2'-O-methyl at 9, 12, 17, other sugars, backbone and the base at N not given here; 3' NN overhangs: dT or U ribonucleotide) | more potent than the unmodified PLK1424 sequence
PLK832: siRNA to human PLK-1, SEQ ID NO:13/14 (chain 1 GCCGCCUCCCUCAUCCAGA; chain 2 UCUGGAUGAGGGAGGCGGC; listed as RNA, chemistry not given here) | effective at killing human tumor cells
PLK1081: siRNA to human PLK-1, SEQ ID NO:17/18 (chain 1 CCAGUGGUUCGAGAGACAG; chain 2 CUGUCUCUCGAACCACUGG; listed as RNA, chemistry not given here) | inhibited the growth of human tumor cells, but at higher siRNA concentrations
PLK1195: siRNA to human PLK-1, SEQ ID NO:19/20 (chain 1 GAGGCUGAGGAUCCUGCCU; chain 2 AGGCAGGAUCCUCAGCCUC; listed as RNA, chemistry not given here) | effective at killing human tumor cells
PLK1229: siRNA to human PLK-1, SEQ ID NO:21/22 (chain 1 GGGUCAGCAAGUGGGUGGA; chain 2 UCCACCCACUUGCUGACCC; listed as RNA, chemistry not given here) | effective at killing human tumor cells
PLK1232: siRNA to human PLK-1, SEQ ID NO:23/24 (chain 1 UCAGCAAGUGGGUGGACUA; chain 2 UAGUCCACCCACUUGCUGA; listed as RNA, chemistry not given here) | effective at killing human tumor cells
PLK1233: siRNA to human PLK-1, SEQ ID NO:25/26 (chain 1 CAGCAAGUGGGUGGACUAU; chain 2 AUAGUCCACCCACUUGCUG; listed as RNA, chemistry not given here) | effective at killing human tumor cells
PLK1242: siRNA to human PLK-1, SEQ ID NO:27/28 (chain 1 GGUGGACUAUUCGGACAAG; chain 2 CUUGUCCGAAUAGUCCACC; listed as RNA, chemistry not given here) | effective at killing human tumor cells
PLK1345: siRNA to human PLK-1, SEQ ID NO:29/30 (chain 1 GACAGCCUGCAGUACAUAG; chain 2 CUAUGUACUGCAGGCUGUC; listed as RNA, chemistry not given here) | inhibited the growth of human tumor cells, but at higher siRNA concentrations
PLK1424 U3/GU: 2′OMe-modified PLK1424 siRNA, SEQ ID NO:53/54 (chain 1 AGANCACCCNCCUNAAAUANN; chain 2 UAUUUAANGAGGGUGANCUNN; 2'-OMe modifications, further chemistry not given here) | as potent as the unmodified PLK1424 sequence
PLK1424 U4/GU: 2′OMe-modified PLK1424 siRNA, SEQ ID NO:57/54 (chain 1 AGANCACCCNCCUNAAANANN; chain 2 UAUUUAANGAGGGUGANCUNN; 2'-OMe modifications, further chemistry not given here) | as potent as the unmodified PLK1424 sequence
PLK1425 3/5: 2′OMe-modified PLK1425 siRNA, SEQ ID NO:67/68 (chain 1 GANCACCCUCCUNAAANAUNN; chain 2 AUAUUUAANGAGGGUGANCNN; 2'-OMe modifications, chemistry not fully specified) | more potent than the unmodified PLK1425 sequence
PLK1556: siRNA to human PLK-1, SEQ ID NO:31/32 (chain 1 GCGCCAUCAUCCUGCACCU; chain 2 AGGUGCAGGAUGAUGGCGC; listed as RNA, chemistry not given here) | effective at killing human tumor cells

system: Neuro2A cells; test: Neuro2A cell viability assay (CellTiter-Blue); format: cell-based; conditions: mouse Neuro2A cells, SNALP-formulated siRNA, viability at 72 h relative to PBS
Protocol: as §1
Additional PLK-1 siRNA molecules were formulated as SNALP (“2:40” SNALP formulation: 2% PEG-cDMA; 40% DLinDMA; 10% DSPC; and 48% cholesterol) and evaluated for their inhibitory effects on cell growth in vitro. HT29 or Neuro2A cells were plated in triplicate at 5000 cells/well and 2500 cells/well, respectively. PLK-1 SNALP dosages were as follows: 25 nM; 5 nM; and 1 nM. Cell viability analysis was performed at 72 hours following transfection. SNALP containing a non-targeting (GFP) siRNA were used as a negative control.
Additional PLK-1 siRNA molecules were formulated as SNALP (“2:40” SNALP formulation: 2% PEG-cDMA; 40% DLinDMA; 10% DSPC; and 48% cholesterol) and evaluated for their inhibitory effects on cell growth in vitro. HT29 or Neuro2A cells were plated in triplicate at 5000 cells/well and 2500 cells/well, respectively. PLK-1 SNALP dosages were as follows: 30 nM; 10 nM; and 3.3 nM. Cell viability analysis was performed at 72 hours following transfection. SNALP containing a non-targeting (GFP) siRNA were used as a negative control.

Substance | cell viability / inhibition of cell growth
PLK1229: siRNA to human PLK-1, SEQ ID NO:21/22 (chain 1 GGGUCAGCAAGUGGGUGGA; chain 2 UCCACCCACUUGCUGACCC; listed as RNA, chemistry not given here) | most potent human/mouse cross-reactive siRNA molecules
PLK1232: siRNA to human PLK-1, SEQ ID NO:23/24 (chain 1 UCAGCAAGUGGGUGGACUA; chain 2 UAGUCCACCCACUUGCUGA; listed as RNA, chemistry not given here) | most potent human/mouse cross-reactive siRNA molecule
PLK1345: siRNA to human PLK-1, SEQ ID NO:29/30 (chain 1 GACAGCCUGCAGUACAUAG; chain 2 CUAUGUACUGCAGGCUGUC; listed as RNA, chemistry not given here) | effective at inhibiting the growth of mouse Neuro2A cells at higher siRNA concentrations
mPLK1424: siRNA to mouse PLK-1, SEQ ID NO:35/36 (chain 1 AGAUCACUCUCCUCAACUA; chain 2 UAGUUGAGGAGAGUGAUCU; listed as RNA, chemistry not given here) | most active mouse-specific siRNA sequences
mPLK1425: siRNA to mouse PLK-1, SEQ ID NO:37/38 (chain 1 GAUCACUCUCCUCAACUAU; chain 2 AUAGUUGAGGAGAGUGAUC; listed as RNA, chemistry not given here) | most active mouse-specific siRNA sequences
mPLK1607: siRNA to mouse PLK-1, SEQ ID NO:43/44 (chain 1 AGGACCACACCAAACUUAU; chain 2 AUAAGUUUGGUGUGGUCCU; listed as RNA, chemistry not given here) | most active mouse-specific PLK-1 siRNA sequences
mPLK1608: siRNA to mouse PLK-1, SEQ ID NO:45/46 (chain 1 GGACCACACCAAACUUAUC; chain 2 GAUAAGUUUGGUGUGGUCC; listed as RNA, chemistry not given here) | most active mouse-specific PLK-1 siRNA sequences
mPLK1668: siRNA to mouse PLK-1, SEQ ID NO:49/50 (chain 1 GAGGGACUUCCAAACGUAC; chain 2 GUACGUUUGGAAGUCCCUC; listed as RNA, chemistry not given here) | most active mouse-specific PLK-1 siRNA sequences

system: IFIT1 mRNA, serum IFNα; test: In vivo immune stimulation assay in Balb/c mice (IFIT1 mRNA, serum IFNα); conditions: SNALP-formulated siRNA IV, 4-6 h

Substance | serum IFNα / serum cytokine response
U(S)-ApoB1: ApoB-1 siRNA with 2′OMe-modified sense strand, SEQ ID NO:284/285 (sense GNCANCACACNGAANACCAAN; antisense AUUGGUAUUCAGUGUGAUGACAC; 2'-OMe on sense strand, chemistry not fully specified) | no measurable serum cytokine response

same assay, conditions: SNALP-formulated siRNA IV, 4 h

Substance | IFIT1 mRNA induction in liver and spleen
U(S)-ApoB1: ApoB-1 siRNA with 2′OMe-modified sense strand, SEQ ID NO:284/285 (sense GNCANCACACNGAANACCAAN; antisense AUUGGUAUUCAGUGUGAUGACAC; 2'-OMe on sense strand, chemistry not fully specified) | induction of IFN-inducible p56 IFIT1 mRNA in the liver and spleen
